Measurements taken from US6525001B1, “Substituted pyrimidine and pyridine herbicides” (Mid-American Commercialization Corporation, priority 1997, dated 2003).

Assays:
Assay in all cases: Test B pre-/postemergence
Format in all cases: in vivo
Design in all cases: key: 0 is no effect; 10 is complete control
[1] = test system: blackgrass (Alopecurus myosuroides)
Outline: (§1)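 Seeds were planted and sprayed preemergence, while plants at 2 to 18 cm (1- to 4-leaf stage) were sprayed postemergence at the same time, with test chemical in a non-phytotoxic solvent mixture containing surfactant. After twelve to sixteen days in a greenhouse, injury was rated visually against untreated controls on a 0–10 scale.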

[2] = test system: broadleaf signalgrass (Brachiaria decumbens)
Outline: as §1

[3] = test system: cocklebur (Xanthium strumarium)
Outline: as §1

corn (Zea mays) = test system: corn (Zea mays)
Outline: as §1

[4] = test system: crabgrass (Digitaria sanguinalis)
Outline: as §1

[5] = test system: giant foxtail (Setaria faberii)
Outline: as §1

[6] = test system: momingglory (Ipomoea hederacea)
Outline: as §1

[7] = test system: pigweed (Amaranthus retroflexus)
Outline: as §1

[8] = test system: purple nutsedge (Cyperus rotundus)
Outline: as §1

soybean (Glycine max) = test system: soybean (Glycine max)
Outline: as §1

[9] = test system: sugar beet (Beta vulgaris)
Outline: as §1

[10] = test system: velvetleaf (Abutilon theophrasti)
Outline: as §1

[11] = test system: wheat (Triticum aestivum)
Outline: as §1

wild oat (Avena fatua) = test system: wild oat (Avena fatua)
Outline: as §1

Cc1cnc(-c2ccc(C(F)(F)F)cc2)nc1Cn1nc(C(F)(F)F)cc1C [Compound 13] was tested, and the “Plant response rating, Blackgrass” value ([1]; Rate 62 g/ha, Postemergence) was 3, the “Blackgrass plant response rating” value ([1]; Rate 62 g/ha, Preemergence) was 2 and the “Plant response rating, Blackgrass” value ([1]; Rate 125 g/ha, Postemergence) was 3. The “Blackgrass plant response rating” value ([1]; Rate 125 g/ha, Preemergence) was 4, the “Plant response rating, Blackgrass” value ([1]; Rate 250 g/ha, Postemergence) was 5 and the “Plant response rating, Blackgrass” value ([1]; Rate 250 g/ha, Preemergence) was 4. For the same compound, the “Plant response rating, Blackgrass” value ([1]; Rate 500 g/ha, Postemergence) was 5, the “Plant response rating, Blackgrass” value ([1]; Rate 500 g/ha, Preemergence) was 9 and the “Plant response rating, B. signalgrass” value ([2]; Rate 62 g/ha, Postemergence) was 5. The “B. signalgrass plant response rating” value ([2]; Rate 62 g/ha, Preemergence) was 7, the “Plant response rating, B. signalgrass” value ([2]; Rate 125 g/ha, Postemergence) was 5 and the “B. signalgrass plant response rating” value ([2]; Rate 125 g/ha, Preemergence) was 8. For the same compound, the “Plant response rating, B. signalgrass” value ([2]; Rate 250 g/ha, Postemergence) was 7, the “Plant response rating, B. signalgrass” value ([2]; Rate 250 g/ha, Preemergence) was 9 and the “Plant response rating, B. signalgrass” value ([2]; Rate 500 g/ha, Postemergence) was 8. The “Plant response rating, B. signalgrass” value ([2]; Rate 500 g/ha, Preemergence) was 9, the “Plant response rating, Cocklebur” value ([3]; Rate 62 g/ha, Postemergence) was 6 and the “Cocklebur plant response rating” value ([3]; Rate 62 g/ha, Preemergence) was 0. For the same compound, the “Plant response rating, Cocklebur” value ([3]; Rate 125 g/ha, Postemergence) was 9, the “Plant response rating, Cocklebur” value ([3]; Rate 250 g/ha, Postemergence) was 9 and the “Plant response rating, Cocklebur” value ([3]; Rate 250 g/ha, Preemergence) was 5. For the same compound, the “Plant response rating, Cocklebur” value ([3]; Rate 500 g/ha, Postemergence) was 9, the “Plant response rating, Cocklebur” value ([3]; Rate 500 g/ha, Preemergence) was 7 and the “Plant response rating, Corn” value (corn (Zea mays); Rate 62 g/ha, Postemergence) was 3. The “Corn plant response rating” value (corn (Zea mays); Rate 62 g/ha, Preemergence) was 1, the “Plant response rating, Corn” value (corn (Zea mays); Rate 125 g/ha, Postemergence) was 3 and the “Corn plant response rating” value (corn (Zea mays); Rate 125 g/ha, Preemergence) was 1. For the same compound, the “Plant response rating, Corn” value (corn (Zea mays); Rate 250 g/ha, Postemergence) was 3, the “Plant response rating, Corn” value (corn (Zea mays); Rate 250 g/ha, Preemergence) was 1 and the “Plant response rating, Corn” value (corn (Zea mays); Rate 500 g/ha, Postemergence) was 4. For the same compound, the “Plant response rating, Corn” value (corn (Zea mays); Rate 500 g/ha, Preemergence) was 2, the “Plant response rating, Crabgrass” value ([4]; Rate 62 g/ha, Postemergence) was 3 and the “Crabgrass plant response rating” value ([4]; Rate 62 g/ha, Preemergence) was 9. The “Plant response rating, Crabgrass” value ([4]; Rate 125 g/ha, Postemergence) was 4, the “Crabgrass plant response rating” value ([4]; Rate 125 g/ha, Preemergence) was 10 and the “Plant response rating, Crabgrass” value ([4]; Rate 250 g/ha, Postemergence) was 7. For the same compound, the “Plant response rating, Crabgrass” value ([4]; Rate 250 g/ha, Preemergence) was 10, the “Plant response rating, Crabgrass” value ([4]; Rate 500 g/ha, Postemergence) was 9 and the “Plant response rating, Crabgrass” value ([4]; Rate 500 g/ha, Preemergence) was 10. For the same compound, the “Plant response rating, Giant foxtail” value ([5]; Rate 62 g/ha, Postemergence) was 2, the “Giant foxtail plant response rating” value ([5]; Rate 62 g/ha, Preemergence) was 9 and the “Plant response rating, Giant foxtail” value ([5]; Rate 125 g/ha, Postemergence) was 3. For the same compound, the “Giant foxtail plant response rating” value ([5]; Rate 125 g/ha, Preemergence) was 10, the “Plant response rating, Giant foxtail” value ([5]; Rate 250 g/ha, Postemergence) was 4 and the “Plant response rating, Giant foxtail” value ([5]; Rate 250 g/ha, Preemergence) was 10. The “Plant response rating, Giant foxtail” value ([5]; Rate 500 g/ha, Postemergence) was 5, the “Plant response rating, Giant foxtail” value ([5]; Rate 500 g/ha, Preemergence) was 10 and the “Plant response rating, Morningglory” value ([6]; Rate 62 g/ha, Postemergence) was 7. The “Morningglory plant response rating” value ([6]; Rate 62 g/ha, Preemergence) was 9, the “Plant response rating, Morningglory” value ([6]; Rate 125 g/ha, Postemergence) was 7 and the “Morningglory plant response rating” value ([6]; Rate 125 g/ha, Preemergence) was 10. For the same compound, the “Plant response rating, Morningglory” value ([6]; Rate 250 g/ha, Postemergence) was 9, the “Plant response rating, Morningglory” value ([6]; Rate 250 g/ha, Preemergence) was 9 and the “Plant response rating, Morningglory” value ([6]; Rate 500 g/ha, Postemergence) was 9. The “Plant response rating, Morningglory” value ([6]; Rate 500 g/ha, Preemergence) was 10, the “Plant response rating, Redroot pigweed” value ([7]; Rate 62 g/ha, Postemergence) was 9 and the “Redroot pigweed plant response rating” value ([7]; Rate 62 g/ha, Preemergence) was 7. For the same compound, the “Plant response rating, Redroot pigweed” value ([7]; Rate 125 g/ha, Postemergence) was 9, the “Redroot pigweed plant response rating” value ([7]; Rate 125 g/ha, Preemergence) was 9 and the “Plant response rating, Redroot pigweed” value ([7]; Rate 250 g/ha, Postemergence) was 10. For the same compound, the “Plant response rating, Redroot pigweed” value ([7]; Rate 250 g/ha, Preemergence) was 9, the “Plant response rating, Redroot pigweed” value ([7]; Rate 500 g/ha, Postemergence) was 10 and the “Plant response rating, Redroot pigweed” value ([7]; Rate 500 g/ha, Preemergence) was 9. The “Plant response rating, Nutsedge” value ([8]; Rate 62 g/ha, Postemergence) was 0, the “Nutsedge plant response rating” value ([8]; Rate 62 g/ha, Preemergence) was 0 and the “Plant response rating, Nutsedge” value ([8]; Rate 125 g/ha, Postemergence) was 0. The “Nutsedge plant response rating” value ([8]; Rate 125 g/ha, Preemergence) was 0, the “Plant response rating, Nutsedge” value ([8]; Rate 250 g/ha, Postemergence) was 0 and the “Plant response rating, Nutsedge” value ([8]; Rate 250 g/ha, Preemergence) was 0. For the same compound, the “Plant response rating, Nutsedge” value ([8]; Rate 500 g/ha, Postemergence) was 0, the “Plant response rating, Nutsedge” value ([8]; Rate 500 g/ha, Preemergence) was 0 and the “Plant response rating, Soybean” value (soybean (Glycine max); Rate 62 g/ha, Postemergence) was 4. For the same compound, the “Soybean plant response rating” value (soybean (Glycine max); Rate 62 g/ha, Preemergence) was 1, the “Plant response rating, Soybean” value (soybean (Glycine max); Rate 125 g/ha, Postemergence) was 5 and the “Soybean plant response rating” value (soybean (Glycine max); Rate 125 g/ha, Preemergence) was 1. The “Plant response rating, Soybean” value (soybean (Glycine max); Rate 250 g/ha, Postemergence) was 5, the “Plant response rating, Soybean” value (soybean (Glycine max); Rate 250 g/ha, Preemergence) was 3 and the “Plant response rating, Soybean” value (soybean (Glycine max); Rate 500 g/ha, Postemergence) was 5. For the same compound, the “Plant response rating, Soybean” value (soybean (Glycine max); Rate 500 g/ha, Preemergence) was 3, the “Plant response rating, Sugarbeets” value ([9]; Rate 62 g/ha, Postemergence) was 9 and the “Sugarbeets plant response rating” value ([9]; Rate 62 g/ha, Preemergence) was 9. The “Plant response rating, Sugarbeets” value ([9]; Rate 125 g/ha, Postemergence) was 10, the “Sugarbeets plant response rating” value ([9]; Rate 125 g/ha, Preemergence) was 10 and the “Plant response rating, Sugarbeets” value ([9]; Rate 250 g/ha, Postemergence) was 10. The “Plant response rating, Sugarbeets” value ([9]; Rate 250 g/ha, Preemergence) was 10, the “Plant response rating, Sugarbeets” value ([9]; Rate 500 g/ha, Postemergence) was 10 and the “Plant response rating, Sugarbeets” value ([9]; Rate 500 g/ha, Preemergence) was 10. For the same compound, the “Plant response rating, Velvetleaf” value ([10]; Rate 62 g/ha, Postemergence) was 4, the “Velvetleaf plant response rating” value ([10]; Rate 62 g/ha, Preemergence) was 6 and the “Plant response rating, Velvetleaf” value ([10]; Rate 125 g/ha, Postemergence) was 4. For the same compound, the “Velvetleaf plant response rating” value ([10]; Rate 125 g/ha, Preemergence) was 7, the “Plant response rating, Velvetleaf” value ([10]; Rate 250 g/ha, Postemergence) was 8 and the “Plant response rating, Velvetleaf” value ([10]; Rate 250 g/ha, Preemergence) was 10. The “Plant response rating, Velvetleaf” value ([10]; Rate 500 g/ha, Postemergence) was 8, the “Plant response rating, Velvetleaf” value ([10]; Rate 500 g/ha, Preemergence) was 10 and the “Plant response rating, Wheat” value ([11]; Rate 62 g/ha, Postemergence) was 2. For the same compound, the “Wheat plant response rating” value ([11]; Rate 62 g/ha, Preemergence) was 0, the “Plant response rating, Wheat” value ([11]; Rate 125 g/ha, Postemergence) was 3 and the “Wheat plant response rating” value ([11]; Rate 125 g/ha, Preemergence) was 0. The “Plant response rating, Wheat” value ([11]; Rate 250 g/ha, Postemergence) was 3, the “Plant response rating, Wheat” value ([11]; Rate 250 g/ha, Preemergence) was 0 and the “Plant response rating, Wheat” value ([11]; Rate 500 g/ha, Postemergence) was 4. For the same compound, the “Plant response rating, Wheat” value ([11]; Rate 500 g/ha, Preemergence) was 1, the “Plant response rating, Wild oats” value (wild oat (Avena fatua); Rate 62 g/ha, Postemergence) was 3 and the “Wild oats plant response rating” value (wild oat (Avena fatua); Rate 62 g/ha, Preemergence) was 3. For the same compound, the “Plant response rating, Wild oats” value (wild oat (Avena fatua); Rate 125 g/ha, Postemergence) was 3, the “Wild oats plant response rating” value (wild oat (Avena fatua); Rate 125 g/ha, Preemergence) was 5 and the “Plant response rating, Wild oats” value (wild oat (Avena fatua); Rate 250 g/ha, Postemergence) was 4. For the same compound, the “Plant response rating, Wild oats” value (wild oat (Avena fatua); Rate 250 g/ha, Preemergence) was 7, the “Plant response rating, Wild oats” value (wild oat (Avena fatua); Rate 500 g/ha, Postemergence) was 4 and the “Plant response rating, Wild oats” value (wild oat (Avena fatua); Rate 500 g/ha, Preemergence) was 9.
